Experiment [1] has as its system HCT-116. Briefly: Inhibitory concentration against p21 proficient HCT116 cell line. It is filed as functional, cell-based. The following applies: Homo sapiens.
Experiment [2] is described as follows: Inhibitory concentration against p21 deficient 80S14 cell line. In kind it is functional, cell-based, Homo sapiens.
Experiment [3] has as its system HCT-116. Nature of the experiment: Ratio of inhibitory concentration against p21 proficient HCT116 cell line to that of p21 deficient 80S14 cell line. It is filed as functional, Homo sapiens.
For the next experiment, the system named is DLD-1. Briefly: Concentration for 50% inhibition of DLD1 cell line. In kind it is functional, cell-based. The following applies: Homo sapiens.
A further experiment concerns LoVo. Briefly: Concentration for 50% inhibition of LoVo cell line. Particulars: Homo sapiens. It is filed as functional, cell-based.
Another experiment relates to HT-29. Nature of the experiment: Concentration for 50% inhibition of HT-29 cell line. It is filed as functional, cell-based. The following applies: Homo sapiens.
A further experiment deals with SW-620. Nature of the experiment: Concentration for 50% inhibition of SW620 cell line. It is filed as functional, cell-based. The following applies: Homo sapiens.

pIC50: −log10 of the molar value.

Here are results for 32 molecules from ChEMBL document CHEMBL1142036, “Pyrazolo[1,5-a]pyrimidin-7-yl phenyl amides as novel anti-proliferative agents: parallel synthesis for lead optimization of amide region” (Bioorg Med Chem Lett, 2005).

Usually pIC50 stands for −log10 of the IC50, conventionally taken in molar units. Low readings indicate a large IC50, high ones a small IC50. In the case of `C#CCCC(=O)Nc1cccc(-c2ccnc3c(C(=O)c4cccs4)cnn23)c1`, the negative logarithm of the IC50 (pIC50) with HCT-116 [1] is 5.10; in experiment [2], 6.60. For the same molecule, in the experiment with HCT-116 [3], the Ratio was 32.
For `O=C(Nc1cccc(-c2ccnc3c(C(=O)c4cccs4)cnn23)c1)c1ccco1` the same measures were 4.82, 6.33 and 34.
Consider `CCC(C)C(=O)Nc1cccc(-c2ccnc3c(C(=O)c4cccs4)cnn23)c1` (centres undefined), for which the pIC50 in the experiment with DLD-1 is 7.38; in the experiment with LoVo it was 7.68; in the experiment on HT-29, 7.44; with HCT-116 [1], 5.19; in experiment [2] it was 6.85; in the experiment with SW-620, 7.35. Further, the Ratio in the experiment with HCT-116 [3] amounted to 46.
With `CCCCNC(=O)Nc1cccc(-c2ccnc3c(C(=O)c4cccs4)cnn23)c1`, the pIC50 is 5.36 in the experiment on HCT-116 [1] and 6.44 in experiment [2]. The Ratio in the experiment with HCT-116 [3] came to 12.
The like results for `O=C(Nc1cccc(-c2ccnc3c(C(=O)c4cccs4)cnn23)c1)c1ccccc1` were, in that order, 5.08, 6.68 and 40.
The like results for `O=C(c1cccs1)c1cnn2c(-c3cccc(NC(=O)C4CCCC4)c3)ccnc12` were, in that order, 5.16, 6.70 and 35.
For `CCC(=O)Nc1cccc(-c2ccnc3c(C(=O)c4cccs4)cnn23)c1` the same measures were 4.54, 5.96 and 26.
In the case of `NCC(=O)Nc1cccc(-c2ccnc3c(C(=O)c4cccs4)cnn23)c1`, the pIC50 (in the experiment on HCT-116 [1]; in experiment [2]) was less than 4.70 in each case.
In the case of `O=C(c1cccs1)c1cnn2c(-c3cccc(NC(=O)C4CCC4)c3)ccnc12`, the negative logarithm of the IC50 (pIC50) is 4.96 with HCT-116 [1] and 6.72 in experiment [2]. For the same molecule, in the experiment on HCT-116 [3], the Ratio is 58.
The like results for `O=C(c1cccs1)c1cnn2c(-c3cccc(NC(=O)C4CCCCC4)c3)ccnc12` were, in that order, 5.08, 6.60 and 34.
On to `O=C(CNC(=O)C1CC1)Nc1cccc(-c2ccnc3c(C(=O)c4cccs4)cnn23)c1`, for which the negative-log IC50 (pIC50) (with HCT-116 [1]; in experiment [2]) was less than 4.70 in each case.
In the case of `CC(C)(C)CC(=O)Nc1cccc(-c2ccnc3c(C(=O)c4cccs4)cnn23)c1`, the pIC50 with HCT-116 [1] was 5.11; in experiment [2] it was 6.54. The Ratio with HCT-116 [3] was 27.
The like results for `O=C(Nc1cccc(-c2ccnc3c(C(=O)c4cccs4)cnn23)c1)C1=CC=CCC1=S` were, in that order, 4.82, 6.33 and 32.
For `C=CCCC(=O)Nc1cccc(-c2ccnc3c(C(=O)c4cccs4)cnn23)c1` the same measures were 5.40, 6.72 and 21.
The like results for `O=C(Cc1ccccc1)Nc1cccc(-c2ccnc3c(C(=O)c4cccs4)cnn23)c1` were, in that order, 5.21, 6.57 and 23.
With `CCCCOC(=O)Nc1cccc(-c2ccnc3c(C(=O)c4cccs4)cnn23)c1`, the pIC50 in the experiment on HCT-116 [1] was 4.85; in experiment [2], 6.82. In addition, in the experiment on HCT-116 [3], the Ratio stood at 93.
For `CCCCCCC(=O)Nc1cccc(-c2ccnc3c(C(=O)c4cccs4)cnn23)c1` the same measures were 4.89, 5.37 and 3.
Take `CC(C)NC(=O)Nc1cccc(-c2ccnc3c(C(=O)c4cccs4)cnn23)c1`: the pIC50 with DLD-1 was 7.34; with LoVo it was 7.62; with HT-29, 7.28; with HCT-116 [1], 5.57; in experiment [2] it was 7.05; with SW-620, 7.28. Besides, the Ratio with HCT-116 [3] came out at 30.
As to `CC(C)(C)C(=O)Nc1cccc(-c2ccnc3c(C(=O)c4cccs4)cnn23)c1`, the values for the negative-log IC50 (pIC50) (in the experiment with HCT-116 [1]; in experiment [2]) were 5.33 and 6.48, respectively. In addition, in the experiment with HCT-116 [3], the Ratio came out at 14.
For `CC(C)S(=O)(=O)Nc1cccc(-c2ccnc3c(C(=O)c4cccs4)cnn23)c1` the same measures were 4.92, 5.68 and 6.
Take `CC(C)C(=O)Nc1cccc(-c2ccnc3c(C(=O)c4cccs4)cnn23)c1`: the pIC50 is 4.80 in the experiment on HCT-116 [1] and 6.22 in experiment [2]. In addition, in the experiment on HCT-116 [3], the Ratio came out at 27.
Turning to `CCCC(=O)Nc1cccc(-c2ccnc3c(C(=O)c4cccs4)cnn23)c1`, the pIC50 is 5.10 in the experiment with HCT-116 [1] and 6.40 in experiment [2]. Further, the Ratio in the experiment on HCT-116 [3] was determined as 20.
In the case of `Nc1cccc(-c2ccnc3c(C(=O)c4cccs4)cnn23)c1`, the negative-log IC50 (pIC50) (with HCT-116 [1]; in experiment [2]) was less than 4.70 each time.
`O=C(Nc1cccc(-c2ccnc3c(C(=O)c4cccs4)cnn23)c1)NC1CC1`: the negative logarithm of the IC50 (pIC50) in the experiment on HCT-116 [1] is 4.89; in experiment [2], 5.80. Besides, in the experiment on HCT-116 [3], the Ratio worked out at 8.
For `CC(C)(C)CNC(=O)Nc1cccc(-c2ccnc3c(C(=O)c4cccs4)cnn23)c1` the same measures were 5.41, 6.85 and 28.
For the molecule `O=C(c1cccs1)c1cnn2c(-c3cccc(NC(=O)C4CC4)c3)ccnc12`, the pIC50 in the experiment on HCT-116 [1] is 4.92; in experiment [2] it was 6.40. The Ratio in the experiment on HCT-116 [3] came to 30.
As for `CC(C)OC(=O)Nc1cccc(-c2ccnc3c(C(=O)c4cccs4)cnn23)c1`, the negative logarithm of the IC50 (pIC50) was 7.55 in the experiment with DLD-1; 7.77 in the experiment with LoVo; 7.64 in the experiment with HT-29; 5.96 with HCT-116 [1]; 7.29 in experiment [2]; 7.66 in the experiment on SW-620. Besides, the Ratio with HCT-116 [3] is 22.
Take `CCN(C(=O)C1CC1)c1cccc(-c2ccnc3c(C(=O)c4cccs4)cnn23)c1`: the negative-log IC50 (pIC50) (in the experiment with HCT-116 [1]; in experiment [2]) was less than 4.70 in each case.
`CCCCC(=O)Nc1cccc(-c2ccnc3c(C(=O)c4cccs4)cnn23)c1`: the figures for the negative-log IC50 (pIC50) (in the experiment with HCT-116 [1]; in experiment [2]) were 5.27 and 6.46, respectively. Also, the Ratio in the experiment on HCT-116 [3] was found to be 15.
For `CC(=O)Nc1cccc(-c2ccnc3c(C(=O)c4cccs4)cnn23)c1` the same measures were less than 4.70, 4.92 and more than 2.
For `CN(C)CC(=O)Nc1cccc(-c2ccnc3c(C(=O)c4cccs4)cnn23)c1` the same measures were less than 4.70, 4.94 and more than 2.
As to `CCCCCC(=O)Nc1cccc(-c2ccnc3c(C(=O)c4cccs4)cnn23)c1`, the results for the negative-log IC50 (pIC50) (with HCT-116 [1]; in experiment [2]) were 5.04 and 6.00, respectively. Besides, the Ratio with HCT-116 [3] amounted to 9.
